In patent US20070004660A1, “Synergistic Modulation of Flt3 Kinase Using Alkylquinolines and Alkylquinazolines” (priority 2005, published 2007) one finds IC50 data, which are given here for five molecules.

Assay [1] has as its target T1, isolated kinase domain of the human FLT3 receptor (a.a. 571-993) (Homo sapiens, UniProt P36888).
T1 construct: human FLT3 receptor (a.a. 571-993)
T1 sequence (P36888 571-993): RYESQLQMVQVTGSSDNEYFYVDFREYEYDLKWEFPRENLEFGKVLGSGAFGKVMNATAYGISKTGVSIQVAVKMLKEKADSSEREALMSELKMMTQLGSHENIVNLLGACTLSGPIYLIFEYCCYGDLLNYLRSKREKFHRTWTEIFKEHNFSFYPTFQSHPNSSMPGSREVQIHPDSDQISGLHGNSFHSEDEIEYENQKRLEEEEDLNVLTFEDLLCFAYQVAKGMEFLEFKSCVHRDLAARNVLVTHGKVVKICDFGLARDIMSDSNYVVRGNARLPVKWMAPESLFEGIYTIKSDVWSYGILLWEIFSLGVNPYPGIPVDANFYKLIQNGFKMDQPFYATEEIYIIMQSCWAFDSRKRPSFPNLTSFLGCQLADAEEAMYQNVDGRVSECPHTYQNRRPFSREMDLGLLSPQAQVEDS
In words: FLT3 fluorescence polarization kinase assay. The conditions noted are these: 150 uM ATP; uncertainty ±10%. The format is biochemical. On the technique in general: In fluorescence polarisation assays a small probe gives low polarisation when free and higher when bound to something large.

The next assay has as its system MV4-11 cells. As to the kind of experiment: Inhibition of MV4-11 cell proliferation (CellTiterGlo, 72 h). The class given is cell-based. Conditions: Homo sapiens; 72 h growth inhibition; uncertainty ±20%.

Usually IC50 stands for the concentration at which inhibition is half-maximal. Turning to `CC(C)Oc1ccc(NC(=O)N2CCC(c3ncnc4ccc(OCCCN5CCN(C)CC5)cc34)CC2)cc1` [Example 76, 4-{6-[3-(4-Methyl-piperazin-1-yl)-propoxy]-quinazolin-4-yl}-piperidine-1-carboxylic acid (4-isopropoxy-phenyl)-amide], the IC50 worked out at 251 nM in assay [1] and 179 nM with MV4-11 cells.

As for `CCC(C)c1ccc(NC(=O)N2CCC(c3ncnc4cc(OC)c(OC)cc34)CC2)cc1` (stereo not shown) [Example 52, 4-(6,7-Dimethoxy-quinazolin-4-yl)-piperidine-1-carboxylic acid (4-sec-butyl-phenyl)-amide], the values for the half-maximal inhibitory concentration (IC50) (in assay [1]; with MV4-11 cells) were 19 nM and 7 nM, respectively.

For the molecule `COc1cc2ncnc(C3CCN(C(=O)Nc4ccc(C5=CCN(C(=O)OC(C)(C)C)CC5)cc4)CC3)c2cc1OC` [Example 61, 4-(4-{[4-(6,7-Dimethoxy-quinazolin-4-yl)-piperidine-1-carbonyl]-amino}-phenyl)-3,6-dihydro-2H-pyridine-1-carboxylic acid tert-butyl ester], the IC50 came out at 8500 nM in assay [1] and 6000 nM in the assay with MV4-11 cells.

Consider `O=C(Nc1ccc(N2CCOCC2)nc1)N1CCC(c2ncnc3cc(OCCN4CCOC4=O)ccc23)CC1` [Example 91, 4-{7-[2-(2-Oxo-oxazolidin-3-yl)-ethoxy]-quinazolin-4-yl}-piperidine-1-carboxylic acid (6-morpholin-4-yl-pyridin-3-yl)-amide], for which the IC50 in assay [1] is 3 nM; in the assay with MV4-11 cells, 98 nM.

Turning to `CC(=O)N1CCN(CCCOc2ccc3c(C4CCN(C(=O)Nc5ccc(N6CCOCC6)cc5)CC4)ncnc3c2)CC1` [Example 117, 4-{7-[3-(4-Acetyl-piperazin-1-yl)-propoxy]-quinazolin-4-yl}-piperidine-1-carboxylic acid (4-morpholin-4-yl-phenyl)-amide], the results for the half-maximal inhibitory concentration (IC50) (in assay [1]; with MV4-11 cells) were 94 nM and 171 nM, respectively.
